This is an account of results in US8859569B2, “Substituted annellated pyrimidines and use thereof” (Bayer Pharma Aktiengesellschaft, priority 2011, dated 2014).

The structures appear in SMILES notation.

For one assay, the system named is aorta rings. Nature of the assay: Vessel-relaxing action in vitro (aorta rings, phenylephrine contraction). To be noted: Oryctolagus cuniculus, concentration required to reduce phenylephrine-induced contraction of rabbit aorta rings by 50%. As for the experimental part: B-1. Vessel-relaxing Action in vitro
Rabbits are stunned with a blow on the back of the neck and exsanguinated. The aorta is removed, freed from adhering tissue, separated into rings with a width of 1.5 mm, and placed individually, with preloading, in 5-ml organ baths with carbogen-gassed Krebs-Henseleit solution at 37° C. with the following composition (mM in each case): sodium chloride: 119; potassium chloride: 4.8; calcium chloride dihydrate: 1; magnesium sulphate heptahydrate: 1.4; potassium dihydrogen phosphate: 1.2; sodium hydrogen carbonate: 25; glucose: 10. The contraction force is recorded with Statham UC2 cells, amplified and digitized via an A/D converter (DAS-1802 HC, Keithley Instruments Munich) and recorded in parallel on a continuous-line recorder. To produce contraction, phenylephrine is added to the bath cumulatively in increasing concentration. After several control cycles, the test substance is added in increasing dosage in each subsequent pass and the level of contraction is compared with the level of contraction reached in the immediately preceding pass. This is used for calculating the concentration that is required to reduce the level of the control value by 50% (IC50 value). The standard application volume is 5 μl, and the proportion of DMSO in the bath solution corresponds to 0.1%.

The target of assay [1] is T1, recombinant guanylate cyclase reporter cell line (Rattus norvegicus, UniProt P19686+P20595).
T1 construct: expressed in transfected cells
T1 sequence (P20595 1-619): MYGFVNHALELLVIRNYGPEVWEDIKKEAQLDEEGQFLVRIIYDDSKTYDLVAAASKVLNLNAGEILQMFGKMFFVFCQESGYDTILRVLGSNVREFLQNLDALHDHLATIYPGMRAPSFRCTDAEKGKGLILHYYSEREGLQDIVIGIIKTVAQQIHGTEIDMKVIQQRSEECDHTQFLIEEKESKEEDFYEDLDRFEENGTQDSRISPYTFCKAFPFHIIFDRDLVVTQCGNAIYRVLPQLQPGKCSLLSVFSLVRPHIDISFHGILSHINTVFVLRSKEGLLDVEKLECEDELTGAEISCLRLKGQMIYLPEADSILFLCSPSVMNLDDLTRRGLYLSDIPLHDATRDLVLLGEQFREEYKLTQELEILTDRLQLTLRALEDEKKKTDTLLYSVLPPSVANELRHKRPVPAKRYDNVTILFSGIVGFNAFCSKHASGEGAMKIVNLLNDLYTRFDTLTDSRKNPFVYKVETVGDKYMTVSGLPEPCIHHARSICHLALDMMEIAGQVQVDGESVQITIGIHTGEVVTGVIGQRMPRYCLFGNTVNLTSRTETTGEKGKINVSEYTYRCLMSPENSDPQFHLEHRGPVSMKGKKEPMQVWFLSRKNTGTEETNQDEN
T1 sequence (P19686 1-690): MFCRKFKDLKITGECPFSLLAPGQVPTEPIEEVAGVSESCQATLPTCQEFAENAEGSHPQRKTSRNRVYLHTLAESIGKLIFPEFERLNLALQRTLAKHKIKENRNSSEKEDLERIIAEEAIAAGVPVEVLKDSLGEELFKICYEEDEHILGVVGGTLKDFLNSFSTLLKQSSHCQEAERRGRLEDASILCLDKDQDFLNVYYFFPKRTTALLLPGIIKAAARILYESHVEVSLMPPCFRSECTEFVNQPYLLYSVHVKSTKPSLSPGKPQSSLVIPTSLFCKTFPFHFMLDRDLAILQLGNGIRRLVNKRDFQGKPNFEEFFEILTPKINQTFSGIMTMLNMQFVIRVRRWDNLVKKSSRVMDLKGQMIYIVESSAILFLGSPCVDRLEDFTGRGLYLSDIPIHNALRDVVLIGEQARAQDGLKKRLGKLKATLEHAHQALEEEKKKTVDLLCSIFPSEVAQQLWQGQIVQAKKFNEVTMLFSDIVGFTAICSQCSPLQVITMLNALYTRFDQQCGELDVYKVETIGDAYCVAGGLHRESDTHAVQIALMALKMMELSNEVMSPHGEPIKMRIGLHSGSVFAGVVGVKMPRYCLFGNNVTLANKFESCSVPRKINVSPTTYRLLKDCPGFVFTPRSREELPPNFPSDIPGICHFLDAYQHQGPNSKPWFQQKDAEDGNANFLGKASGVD
Nature of the assay: Action on recombinant guanylate cyclase reporter cell line. The assay is classed as cell-based. As for the experimental part:
B-2. Action on Recombinant Guanylate Cyclase Reporter Cell Line
The cellular action of the compounds according to the invention is determined on a recombinant guanylate cyclase reporter cell line, as described in F. Wunder et al., Anal. Biochem. 339, 104-112 (2005).

Assay [2] deals with T2, human phosphodiesterase 5 (PDE-5) (Homo sapiens, UniProt O76074).
T2 construct: PDE-5 preparations are obtained from human platelets by lysis; from tissue; host or cells: human platelets
Nature of the assay: Inhibition of human phosphodiesterase 5 (PDE-5), SPA assay. The assay is classed as biochemical. As to conditions: PDE-5 preparation from human platelets, [8-3H]cGMP substrate. A digest of the protocol:
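PDE-5 partially purified from human platelets by Mono Q chromatography, diluted so under 70% of [8-3H]cGMP (0.025 μCi) converted. Compounds at 4 μM to 0.0018 μM final, Tris-HCl pH 7.5 with MgCl2, 60 min at room temperature. Yttrium SPA beads stop reaction; IC50 from concentration–inhibition plots.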

In the case of `CC1(C)C(=O)Nc2nc(-c3nn(Cc4ccccc4F)c4c3CCC4)nc(NCCC(F)(F)F)c21` [Example 20, 2-[1-(2-Fluorobenzyl)-1,4,5,6-tetrahydrocyclopenta[c]pyrazol-3-yl]-5,5-dimethyl-4-[(3,3,3-trifluoropropyl)amino]-5,7-dihydro-6H-pyrrolo[2,3-d]pyrimidin-6-one], the IC50 with aorta rings was determined as 1870 nM; in assay [2], 900 nM. Further, in assay [1], the “MEC (minimal effective concentration)” value was found to be 0.3 μm.
For `CCN1CCN(c2nc(-c3nn(Cc4ccccc4F)c4ncccc34)nc3c2C(C)(C)C(=O)N3)C1=O` [Example 21, 4-(3-Ethyl-2-oxoimidazolidin-1-yl)-2-[1-(2-fluorobenzyl)-1H-pyrazolo[3,4-b]pyridin-3-yl]-5,5-dimethyl-5,7-dihydro-6H-pyrrolo[2,3-d]pyrimidin-6-one] the same measures were 100 nM, 400 nM and 0.03 μm.
With `CC1(C)C(=O)Nc2nc(-n3nc(Cc4ccccc4F)c4ccccc43)nc(O)c21` [Example 22, 2-[3-(2-Fluorobenzyl)-1H-indazol-1-yl]-4-hydroxy-5,5-dimethyl-5,7-dihydro-6H-pyrrolo[2,3-d]pyrimidin-6-one], the figures for the IC50 (with aorta rings; in assay [2]) were 530 nM and 580 nM, respectively. Moreover, the “MEC (minimal effective concentration)” value in assay [1] is given as 0.03 μm.
In the case of `Cc1cc(C)n(-c2nc(-c3nn(Cc4ccccc4F)c4ncccc34)nc3c2C(C)(C)C(=O)N3)n1` [Example 23, 4-(3,5-Dimethyl-1H-pyrazol-1-yl)-2-[1-(2-fluorobenzyl)-1H-pyrazolo[3,4-b]pyridin-3-yl]-5,5-dimethyl-5,7-dihydro-6H-pyrrolo[2,3-d]pyrimidin-6-one], the IC50 is 2860 nM with aorta rings and 1600 nM in assay [2]. The “MEC (minimal effective concentration)” value in assay [1] stood at 0.1 μm.
For `CC1(C)C(=O)Nc2nc(-c3nn(Cc4ccccc4F)c4ncccc34)nc(-n3cccc(F)c3=O)c21` [Example 24, 2-[1-(2-Fluorobenzyl)-1H-pyrazolo[3,4-b]pyridin-3-yl]-4-(3-fluoro-2-oxopyridin-1(2H)-yl)-5,5-dimethyl-5,7-dihydro-6H-pyrrolo[2,3-d]pyrimidin-6-one] the same measures were 573 nM, 100 nM and 0.1 μm.
For `CC1(C)C(=O)Nc2nc(-c3nn(Cc4ccccc4F)c4ncccc34)nc(N3CC(C(F)(F)F)CC3=O)c21` (stereo not drawn) [Example 25, 2-[1-(2-Fluorobenzyl)-1H-pyrazolo[3,4-b]pyridin-3-yl]-5,5-dimethyl-4-[2-oxo-4-(trifluoromethyl)pyrrolidin-1-yl]-5,7-dihydro-6H-pyrrolo[2,3-d]pyrimidin-6-one] the same measures were 501 nM, 320 nM and 0.1 μm.
For `CC1(C)C(=O)Nc2nc(-c3nn(Cc4ccccc4F)c4ncccc34)nc(-n3cc(O)cn3)c21` [Example 26, 2-[1-(2-Fluorobenzyl)-1H-pyrazolo[3,4-b]pyridin-3-yl]-4-(4-hydroxy-1H-pyrazol-1-yl)-5,5-dimethyl-5,7-dihydro-6H-pyrrolo[2,3-d]pyrimidin-6-one] the same measures were 674 nM, 12 nM and 0.03 μm.
Consider `CC1(C)C(=O)Nc2nc(-c3nn(Cc4ccccc4F)c4ncccc34)nc(Oc3cn[nH]c3)c21` [Example 27, 2-[1-(2-Fluorobenzyl)-1H-pyrazolo[3,4-b]pyridin-3-yl]-5,5-dimethyl-4-(1H-pyrazol-4-yloxy)-5,7-dihydro-6H-pyrrolo[2,3-d]pyrimidin-6-one], for which the IC50 is 1470 nM in the assay with aorta rings and 4 nM in assay [2]. Moreover, the “MEC (minimal effective concentration)” value in assay [1] is reported as 0.1 μm.
For `CC(O)c1ccn(-c2nc(-c3nn(Cc4ccccc4F)c4ncccc34)nc3c2C(C)(C)C(=O)N3)n1` (stereo not drawn) [Example 28, 2-[1-(2-Fluorobenzyl)-1H-pyrazolo[3,4-b]pyridin-3-yl]-4-[3-(1-hydroxyethyl)-1H-pyrazol-1-yl]-5,5-dimethyl-5,7-dihydro-6H-pyrrolo[2,3-d]pyrimidin-6-one] the same measures were 98 nM, 110 nM and 0.3 μm.
For `CC1(C)C(=O)Nc2nc(-c3nn(Cc4ccccc4F)c4ncccc34)nc(-n3cc(C(F)(F)F)cn3)c21` [Example 29, 2-[1-(2-Fluorobenzyl)-1H-pyrazolo[3,4-b]pyridin-3-yl]-5,5-dimethyl-4-[4-(trifluoromethyl)-1H-pyrazol-1-yl]-5,7-dihydro-6H-pyrrolo[2,3-d]pyrimidin-6-one] the same measures were 11400 nM, more than 4000 nM and 1.0 μm.
For `CC1(C)C(=O)Nc2nc(-c3nn(Cc4ccccc4F)c4ncccc34)nc(-n3ccc(C(F)(F)F)n3)c21` [Example 30, 2-[1-(2-Fluorobenzyl)-1H-pyrazolo[3,4-b]pyridin-3-yl]-5,5-dimethyl-4-[3-(trifluoromethyl)-1H-pyrazol-1-yl]-5,7-dihydro-6H-pyrrolo[2,3-d]pyrimidin-6-one] the same measures were more than 10000 nM, more than 4000 nM and 1.0 μm.
As for `CC1(C)C(=O)Nc2nc(-n3nc(Cc4ccccc4F)c4cc(F)ccc43)nc(O)c21` [Example 31, 2-[5-Fluoro-3-(2-fluorobenzyl)-1H-indazol-1-yl]-4-hydroxy-5,5-dimethyl-5,7-dihydro-6H-pyrrolo[2,3-d]pyrimidin-6-one], the results for the IC50 (with aorta rings; in assay [2]) were 142 nM and 500 nM, respectively. In addition, the “MEC (minimal effective concentration)” value in assay [1] is reported as 0.01 μm.
For `CC1(C)C(=O)Nc2nc(-c3nn(Cc4ccccc4F)c4ncccc34)nc(N3CCOC(C(F)(F)F)C3)c21` (stereo not drawn) [Example 32, 2-[1-(2-Fluorobenzyl)-1H-pyrazolo[3,4-b]pyridin-3-yl]-5,5-dimethyl-4-[2-(trifluoromethyl)morpholin-4-yl]-5,7-dihydro-6H-pyrrolo[2,3-d]pyrimidin-6-one] the same measures were 9160 nM, 720 nM and 1.0 μm.
For `CC1(C)C(=O)Nc2nc(-c3nn(Cc4ccccc4F)c4ncccc34)nc(N3CCC(C(F)(F)F)C3)c21` (stereo not drawn) [Example 33, 2-[1-(2-Fluorobenzyl)-1H-pyrazolo[3,4-b]pyridin-3-yl]-5,5-dimethyl-4-[3-(trifluoromethyl)pyrrolidin-1-yl]-5,7-dihydro-6H-pyrrolo[2,3-d]pyrimidin-6-one] the same measures were 696 nM, 570 nM and 0.3 μm.
